# Data: patent US8192962B2, “Processes for detecting toxic substances” (Daikin Industries, Ltd., priority 2001, dated 2012)
# Test system: Stress protein genes
# Experiment: DNA chip mRNA expression in yeast, stress protein genes (Table 6)
# Type: cell-based, Saccharomyces cerevisiae S288C
# Outline: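 Values are treated/untreated fluorescence ratios from a whole-genome yeast DNA chip hybridized over 12 hours at 65° C with Cy3- or Cy5-labelled cDNA from poly(A) mRNA. Log-phase S288C yeast in YPD at 25° C had received a single toxic chemical for two hours, dosed to slow growth without killing.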
substance,measurement,setting,value
Na2As [(1)],The level of expressed mRNA in the presence of chemical substance/The level of expressed mRNA in the absence of chemical substance,yeast gene YAL005C,0.6
same,The level of expressed mRNA in the presence of chemical substance/The level of expressed mRNA in the absence of chemical substance,yeast gene YAL015C,1.2
same,The level of expressed mRNA in the presence of chemical substance/The level of expressed mRNA in the absence of chemical substance,yeast gene YBL075C,1.3
same,The level of expressed mRNA in the presence of chemical substance/The level of expressed mRNA in the absence of chemical substance,yeast gene YBL093C,1.0
same,The level of expressed mRNA in the presence of chemical substance/The level of expressed mRNA in the absence of chemical substance,yeast gene YBR044C,0.8
same,The level of expressed mRNA in the presence of chemical substance/The level of expressed mRNA in the absence of chemical substance,yeast gene YBR054W,1.9
same,The level of expressed mRNA in the presence of chemical substance/The level of expressed mRNA in the absence of chemical substance,yeast gene YBR067C,1.6
same,The level of expressed mRNA in the presence of chemical substance/The level of expressed mRNA in the absence of chemical substance,yeast gene YBR072W,18.5
same,The level of expressed mRNA in the presence of chemical substance/The level of expressed mRNA in the absence of chemical substance,yeast gene YBR126C,0.8
same,The level of expressed mRNA in the presence of chemical substance/The level of expressed mRNA in the absence of chemical substance,yeast gene YBR169C,1.0
same,The level of expressed mRNA in the presence of chemical substance/The level of expressed mRNA in the absence of chemical substance,yeast gene YCL035C,2.0
same,The level of expressed mRNA in the presence of chemical substance/The level of expressed mRNA in the absence of chemical substance,yeast gene YCR021C,5.2
same,The level of expressed mRNA in the presence of chemical substance/The level of expressed mRNA in the absence of chemical substance,yeast gene YCR083W,1.1
same,The level of expressed mRNA in the presence of chemical substance/The level of expressed mRNA in the absence of chemical substance,yeast gene YDL022W,0.9
same,The level of expressed mRNA in the presence of chemical substance/The level of expressed mRNA in the absence of chemical substance,yeast gene YDL025C,1.7
same,The level of expressed mRNA in the presence of chemical substance/The level of expressed mRNA in the absence of chemical substance,yeast gene YDR033W,1.1
same,The level of expressed mRNA in the presence of chemical substance/The level of expressed mRNA in the absence of chemical substance,yeast gene YDR077W,1.2
same,The level of expressed mRNA in the presence of chemical substance/The level of expressed mRNA in the absence of chemical substance,yeast gene YDR098C,0.8
same,The level of expressed mRNA in the presence of chemical substance/The level of expressed mRNA in the absence of chemical substance,yeast gene YDR155C,1.1
same,The level of expressed mRNA in the presence of chemical substance/The level of expressed mRNA in the absence of chemical substance,yeast gene YDR258C,1.6
same,The level of expressed mRNA in the presence of chemical substance/The level of expressed mRNA in the absence of chemical substance,yeast gene YDR293C,0.9
same,The level of expressed mRNA in the presence of chemical substance/The level of expressed mRNA in the absence of chemical substance,yeast gene YDR436W,0.9
same,The level of expressed mRNA in the presence of chemical substance/The level of expressed mRNA in the absence of chemical substance,yeast gene YDR513W,2.2
same,The level of expressed mRNA in the presence of chemical substance/The level of expressed mRNA in the absence of chemical substance,yeast gene YDR519W,1.3
same,The level of expressed mRNA in the presence of chemical substance/The level of expressed mRNA in the absence of chemical substance,yeast gene YEL030W,0.7
same,The level of expressed mRNA in the presence of chemical substance/The level of expressed mRNA in the absence of chemical substance,yeast gene YEL039C,1.1
same,The level of expressed mRNA in the presence of chemical substance/The level of expressed mRNA in the absence of chemical substance,yeast gene YER042W,3.0
same,The level of expressed mRNA in the presence of chemical substance/The level of expressed mRNA in the absence of chemical substance,yeast gene YER057C,1.2
same,The level of expressed mRNA in the presence of chemical substance/The level of expressed mRNA in the absence of chemical substance,yeast gene YER103W,0.7
same,The level of expressed mRNA in the presence of chemical substance/The level of expressed mRNA in the absence of chemical substance,yeast gene YER125W,0.6
same,The level of expressed mRNA in the presence of chemical substance/The level of expressed mRNA in the absence of chemical substance,yeast gene YFL014W,3.4
same,The level of expressed mRNA in the presence of chemical substance/The level of expressed mRNA in the absence of chemical substance,yeast gene YFL016C,0.8
same,The level of expressed mRNA in the presence of chemical substance/The level of expressed mRNA in the absence of chemical substance,yeast gene YFL020C,1.0
same,The level of expressed mRNA in the presence of chemical substance/The level of expressed mRNA in the absence of chemical substance,yeast gene YFR052W,1.1
same,The level of expressed mRNA in the presence of chemical substance/The level of expressed mRNA in the absence of chemical substance,yeast gene YGL073W,1.0
same,The level of expressed mRNA in the presence of chemical substance/The level of expressed mRNA in the absence of chemical substance,yeast gene YGL115W,0.9
same,The level of expressed mRNA in the presence of chemical substance/The level of expressed mRNA in the absence of chemical substance,yeast gene YGL181W,0.9
same,The level of expressed mRNA in the presence of chemical substance/The level of expressed mRNA in the absence of chemical substance,yeast gene YGR088W,1.3
same,The level of expressed mRNA in the presence of chemical substance/The level of expressed mRNA in the absence of chemical substance,yeast gene YHL028W,0.7
same,The level of expressed mRNA in the presence of chemical substance/The level of expressed mRNA in the absence of chemical substance,yeast gene YHL046C,1.1
same,The level of expressed mRNA in the presence of chemical substance/The level of expressed mRNA in the absence of chemical substance,yeast gene YHR030C,2.1
same,The level of expressed mRNA in the presence of chemical substance/The level of expressed mRNA in the absence of chemical substance,yeast gene YHR057C,1.1
same,The level of expressed mRNA in the presence of chemical substance/The level of expressed mRNA in the absence of chemical substance,yeast gene YHR104W,1.0
same,The level of expressed mRNA in the presence of chemical substance/The level of expressed mRNA in the absence of chemical substance,yeast gene YIL011W,0.7
same,The level of expressed mRNA in the presence of chemical substance/The level of expressed mRNA in the absence of chemical substance,yeast gene YIL033C,0.8
same,The level of expressed mRNA in the presence of chemical substance/The level of expressed mRNA in the absence of chemical substance,yeast gene YIR037W,1.4
same,The level of expressed mRNA in the presence of chemical substance/The level of expressed mRNA in the absence of chemical substance,yeast gene YIR038C,1.3
same,The level of expressed mRNA in the presence of chemical substance/The level of expressed mRNA in the absence of chemical substance,yeast gene YJL128C,0.8
same,The level of expressed mRNA in the presence of chemical substance/The level of expressed mRNA in the absence of chemical substance,yeast gene YJL158C,0.9
same,The level of expressed mRNA in the presence of chemical substance/The level of expressed mRNA in the absence of chemical substance,yeast gene YJL159W,1.0
same,The level of expressed mRNA in the presence of chemical substance/The level of expressed mRNA in the absence of chemical substance,yeast gene YJL165C,1.0
same,The level of expressed mRNA in the presence of chemical substance/The level of expressed mRNA in the absence of chemical substance,yeast gene YJR045C,0.5
same,The level of expressed mRNA in the presence of chemical substance/The level of expressed mRNA in the absence of chemical substance,yeast gene YJR090C,0.8
same,The level of expressed mRNA in the presence of chemical substance/The level of expressed mRNA in the absence of chemical substance,yeast gene YKL161C,4.2
same,The level of expressed mRNA in the presence of chemical substance/The level of expressed mRNA in the absence of chemical substance,yeast gene YKL163W,1.1
same,The level of expressed mRNA in the presence of chemical substance/The level of expressed mRNA in the absence of chemical substance,yeast gene YKL164C,0.6
same,The level of expressed mRNA in the presence of chemical substance/The level of expressed mRNA in the absence of chemical substance,yeast gene YKL210W,0.5
same,The level of expressed mRNA in the presence of chemical substance/The level of expressed mRNA in the absence of chemical substance,yeast gene YKR053C,0.9
same,The level of expressed mRNA in the presence of chemical substance/The level of expressed mRNA in the absence of chemical substance,yeast gene YLL024C,0.5
same,The level of expressed mRNA in the presence of chemical substance/The level of expressed mRNA in the absence of chemical substance,yeast gene YLL026W,1.8
same,The level of expressed mRNA in the presence of chemical substance/The level of expressed mRNA in the absence of chemical substance,yeast gene YLL039C,1.1
same,The level of expressed mRNA in the presence of chemical substance/The level of expressed mRNA in the absence of chemical substance,yeast gene YLL060C,12.5
same,The level of expressed mRNA in the presence of chemical substance/The level of expressed mRNA in the absence of chemical substance,yeast gene YLR006C,0.7
same,The level of expressed mRNA in the presence of chemical substance/The level of expressed mRNA in the absence of chemical substance,yeast gene YLR109W,0.8
same,The level of expressed mRNA in the presence of chemical substance/The level of expressed mRNA in the absence of chemical substance,yeast gene YLR259C,0.7
same,The level of expressed mRNA in the presence of chemical substance/The level of expressed mRNA in the absence of chemical substance,yeast gene YML007W,0.9
same,The level of expressed mRNA in the presence of chemical substance/The level of expressed mRNA in the absence of chemical substance,yeast gene YML070W,0.9
same,The level of expressed mRNA in the presence of chemical substance/The level of expressed mRNA in the absence of chemical substance,yeast gene YMR021C,1.0
same,The level of expressed mRNA in the presence of chemical substance/The level of expressed mRNA in the absence of chemical substance,yeast gene YMR173W,1.5
same,The level of expressed mRNA in the presence of chemical substance/The level of expressed mRNA in the absence of chemical substance,yeast gene YMR186W,0.6
same,The level of expressed mRNA in the presence of chemical substance/The level of expressed mRNA in the absence of chemical substance,yeast gene YNL064C,0.9
same,The level of expressed mRNA in the presence of chemical substance/The level of expressed mRNA in the absence of chemical substance,yeast gene YNL160W,2.1
same,The level of expressed mRNA in the presence of chemical substance/The level of expressed mRNA in the absence of chemical substance,yeast gene YNL241C,1.3
same,The level of expressed mRNA in the presence of chemical substance/The level of expressed mRNA in the absence of chemical substance,yeast gene YNR076W,1.3
same,The level of expressed mRNA in the presence of chemical substance/The level of expressed mRNA in the absence of chemical substance,yeast gene YOL064C,1.4
same,The level of expressed mRNA in the presence of chemical substance/The level of expressed mRNA in the absence of chemical substance,yeast gene YOL161C,1.2
same,The level of expressed mRNA in the presence of chemical substance/The level of expressed mRNA in the absence of chemical substance,yeast gene YOR008C,0.7
same,The level of expressed mRNA in the presence of chemical substance/The level of expressed mRNA in the absence of chemical substance,yeast gene YOR009W,0.9
same,The level of expressed mRNA in the presence of chemical substance/The level of expressed mRNA in the absence of chemical substance,yeast gene YOR010C,0.7
same,The level of expressed mRNA in the presence of chemical substance/The level of expressed mRNA in the absence of chemical substance,yeast gene YOR027W,0.7
same,The level of expressed mRNA in the presence of chemical substance/The level of expressed mRNA in the absence of chemical substance,yeast gene YOR208W,1.3
same,The level of expressed mRNA in the presence of chemical substance/The level of expressed mRNA in the absence of chemical substance,yeast gene YPL059W,1.2
same,The level of expressed mRNA in the presence of chemical substance/The level of expressed mRNA in the absence of chemical substance,yeast gene YPL106C,0.6
same,The level of expressed mRNA in the presence of chemical substance/The level of expressed mRNA in the absence of chemical substance,yeast gene YPL140C,0.9
same,The level of expressed mRNA in the presence of chemical substance/The level of expressed mRNA in the absence of chemical substance,yeast gene YPL194W,0.9
same,The level of expressed mRNA in the presence of chemical substance/The level of expressed mRNA in the absence of chemical substance,yeast gene YPL223C,4.8
same,The level of expressed mRNA in the presence of chemical substance/The level of expressed mRNA in the absence of chemical substance,yeast gene YPL240C,0.7
same,The level of expressed mRNA in the presence of chemical substance/The level of expressed mRNA in the absence of chemical substance,yeast gene YPR005C,1.3
same,The level of expressed mRNA in the presence of chemical substance/The level of expressed mRNA in the absence of chemical substance,yeast gene YPR026W,0.9
